According to US10080758B2, “Tosylate salt of N-[3-[(4aR,7aS)-2-amino-6-(5-fluoropyrimidin-2-yl)-4,4a,5,7-tetrahydropyrrolo[3,4-d][1,3]thiazin-7a-yl]-4-fluoro-phenyl]-5-methoxy-pyrazine-2-carboxamide” (Eli Lilly and Company, priority 2015, dated 2018):

Experiments:
[1] = Solid state physical stability versus relative humidity; assay type: physicochemical; conditions: room temperature
From the text: Such physical instability is undesirable, particularly for a pharmaceutical drug substance or drug product, both of which are subject to regulatory controls regarding the solid state forms. […] As such, the tosylate salt of N-{3-[(4aR,7aS)-2-amino-6-(5-fluoropyrimidin-2-yl)-4a,5,6,7-tetrahydropyrrolo[3,4-d][1,3]thiazin-7a(4H)-yl]-4-fluoro-phenyl}-5-methoxypyrazine-2-carboxamide essentially avoids the humidity dependent phase transformations associated with the corresponding crystalline free base forms. […] The increased likelihood of the free base to undergo phase transitions during long term storage can lead to variability in properties, such as solubility or dissolution rate, which may compromise the performance of the drug product. It also poses the additional risk of collapse of the crystal structure(s) to an amorphous form or accumulation of defects and disorder, which could lead to chemical instability and reduced shelf-life of the drug product.

[2] = system: Abeta 1-x peptide; assay: In vivo inhibition of beta-secretase (brain Abeta 1-x lowering); set-up: species or system mice; conditions: for Abeta 1-x peptide levels reduced, brain cortex / Abeta 1-x peptide levels reduced, brain hippocampus: three hours after administration, compared to vehicle-treated mice
From the text: Several animal models, including mouse, guinea pig, dog, and monkey, may be used to screen for inhibition of beta-secretase activity in vivo following compound treatment. Animals used in this invention can be wild type, transgenic, or gene knockout animals. For example, the PDAPP mouse model, prepared as described in Games et al., Nature 373, 523-527 (1995), and other non-transgenic or gene knockout animals are useful to analyze in vivo inhibition of Abeta and sAPPbeta production in the presence of inhibitory compounds. Generally, 2 to 12 month old PDAPP mice, gene knockout mice or non-transgenic animals are administered compound formulated in vehicles, such as corn oil, cyclodextran, phosphate buffers, […]®, or other suitable vehicles. One to twenty-four hours following the administration of compound, animals are sacrificed, and brains as well as cerebrospinal fluid and plasma are removed for analysis of Abetas, C99, and sAPP fragments. (See May, et al., Journal of Neuroscience, 31, 16507-16516 (2011)). For standard in vivo pharmacology studies, animals are dosed with various concentrations of compound and compared to a vehicle-treated control group dosed at the same time. For some time course studies, brain tissue, plasma, or cerebrospinal fluid is obtained from selected animals, beginning at time 0 to establish a baseline. Compound or appropriate vehicle is administered to other groups and sacrificed at various times after dosing. Brain tissue, plasma, or cerebrospinal fluid is obtained from selected animals and analyzed for the presence of APP cleavage products, including Abeta peptides, sAPPbeta, and other APP fragments, for example, by specific sandwich ELISA assays. At the end of the test period, animals are sacrificed and brain tissues, plasma, or cerebrospinal fluid are analyzed for the presence of Abeta peptides, C99, and sAPPbeta, as appropriate. Brain tissues of APP transgenic animals may also be analyzed for the amount of beta-amyloid plaques following compound treatment. “Abeta 1-x peptide” as used herein refers to the sum of Abeta species that begin with residue 1 and ending with a C-terminus greater than residue 28. This detects the majority of Abeta species and is often called “total Abeta”.

[3] = system: Abeta released by primary cortical neurons from PDAPP embryos; assay: PDAPP primary neuronal assay (Abeta ELISA); assay type: cell-based; conditions: Mus musculus, Primary cortical neuron; 24 hours incubation; Abeta 1-42; Mean ± SEM; read-out: PDAPP Neuron A-beta (1-42) ELISA IC50
[4] = Solvent retained in the crystal; assay type: physicochemical

## COc1cnc(C(=O)Nc2ccc(F)c([C@]34CN(c5ncc(F)cn5)C[C@@H]3CN=C(N)S4)c2)cn1.O [Crystalline Form 2, Crystalline Form 2 N-[3-[(4aR,7aS)-2-Amino-6-(5-fluoropyrimidin-2-yl)-4,4a,5,7-tetrahydropyrrolo[3,4-d][1,3]thiazin-7a-yl]-4-fluoro-phenyl]-5-methoxy-pyrazine-2-carboxamide (Hydrated)]
[1]
  relative humidity at which the crystal form is present / stable: greater than 15 % relative humidity
[1]; listed as crystalline form 2
  relative humidity at which the crystal form is present / stable: above 15 % relative humidity

## COc1cnc(C(=O)Nc2ccc(F)c([C@]34CN(c5ncc(F)cn5)C[C@H]3CSC(N)=N4)c2)cn1 [N-[3-[(4aR,7aS)-2-amino-6-(5-fluoropyrimidin-2-yl)-4,4a,5,7-tetrahydropyrrolo[3,4-d][1,3]thiazin-7a-yl]-4-fluoro-phenyl]-5-methoxy-pyrazine-2-carboxamide]
[2]
  CNS penetration: demonstrate CNS penetration

## COc1cnc(C(=O)Nc2ccc(F)c([C@]34CN(c5ncc(F)cn5)C[C@H]3CSC(N)=N4)c2)cn1.Cl [Preparation 46, N-[3-[(4aR,7aS)-2-Amino-6-(5-fluoropyrimidin-2-yl)-4,4a,5,7-tetrahydropyrrolo[3,4-d][1,3]thiazin-7a-yl]-4-fluoro-phenyl]-5-methoxy-pyrazine-2-carboxamide hydrochloride]
[3]
  IC50: 0.228 nM
[2]; 0.3 mg/kg oral dose
  Abeta 1-x peptide levels reduced, brain cortex: approximately 28%
  Abeta 1-x peptide levels reduced, brain hippocampus: approximately 31%
[2]; 1 mg/kg oral dose
  Abeta 1-x peptide levels reduced, brain cortex: ~42%
  Abeta 1-x peptide levels reduced, brain hippocampus: ~39%
[2]; 3 mg/kg oral dose
  Abeta 1-x peptide levels reduced, brain cortex: ~64%
  Abeta 1-x peptide levels reduced, brain hippocampus: ~61%
[4]
  amount of solvent retained in the crystal: about 7.7%
